Values of other authors, collected in patent US6245768A, “1-(N'-(arylalkylaminoalkyl)) aminoisoindoles; a new class of dopamine receptor subtype specific ligands” (Neurogen Corporation, priority 1999, dated 2001).
Like-named read-outs stand apart in the source and are kept apart here.

What was measured:
D1 dopamine receptor = details: related art
D2 receptors = details: related art

O=C(CCCN1CCC(O)(c2ccc(Cl)cc2)CC1)c1ccc(F)cc1 [haloperidol]
binding at the D1 dopamine receptor (D1 dopamine receptor): binds relatively weakly
binding affinity at D2 receptors (D2 receptors): subnanomolar range

CN1CCN(C2=Nc3cc(Cl)ccc3Nc3ccccc32)CC1 [clozapine]
incidence of extrapyramidal side effects (EPS) (compared with classical neuroleptics, related art): lesser incidence of extrapyramidal side effects (EPS) than classical neuroleptics

CCN1CCCC1CNC(=O)c1cc(S(N)(=O)=O)ccc1OC (stereo not shown) [sulpiride]
incidence of extrapyramidal side effects (EPS) (in vivo): lesser incidence of extrapyramidal side effects (EPS) than classical neuroleptics
